The target of one experiment is T1, ULK1 kinase (Homo sapiens, UniProt O75385, E37A/K38A).
T1 construct: (residues 1-283; ID NO: 2); purchased Beryllium
T1 sequence (O75385 1-283 E37A/K38A): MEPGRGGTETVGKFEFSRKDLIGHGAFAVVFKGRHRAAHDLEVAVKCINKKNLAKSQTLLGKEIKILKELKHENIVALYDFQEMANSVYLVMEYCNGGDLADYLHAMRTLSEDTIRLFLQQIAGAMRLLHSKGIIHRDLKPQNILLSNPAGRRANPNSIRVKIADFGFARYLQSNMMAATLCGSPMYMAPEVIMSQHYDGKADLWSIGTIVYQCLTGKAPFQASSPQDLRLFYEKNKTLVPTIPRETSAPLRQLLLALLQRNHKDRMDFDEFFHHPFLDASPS
As to the kind of experiment: Biochemical assay for ULK1.3 (coupled pyruvate kinase/lactate dehydrogenase assay). Conditions: 0.1 nM ULK1 (from Beryllium), peptide substrate, 1 mM ATP. The procedure:
Example 175. Biochemical Assay for ULK1.3
Activity of ULK1 kinase was determined spectroscopically using a coupled pyruvate kinase/lactate dehydrogenase assay that continuously monitors the ATP hydrolysis-dependent oxidation of NADH (e.g., Schindler et al. Science (2000) 289: 1938-1942). Assays were conducted in 384-well plates (100 uL final volume) using 0.1 nM ULK1 (from Beryllium), 0.075 mM peptide substrate (YANWLAASIYLDGKKK (SEQ ID NO: 5)), 1.5 units pyruvate kinase, 2.1 units lactate dehydrogenase, 1 mM phosphoenol pyruvate, 0.28 mM NADH and 1 mM ATP in assay buffer (100 mM Tris, pH 7.5, 15 mM MgCl2, 0.5 mM DTT, 0.004% (w/v) BSA, and 0.004% Triton X-100). Inhibition of ULK1 was measured by adding serial diluted test compound (final assay concentration of 1% DMSO). A decrease in absorption at 340 nm was monitored continuously for 6 hours at 30° C. on a multi-mode microplate reader (BioTek). The reaction rate was calculated using the 2-3 h time frame. The reaction rate at each concentration of compound was converted to percent inhibition using controls (i.e. reaction with no test compound and reaction with a known inhibitor) and IC50 values were calculated using software routines in Prism (GraphPad software).

A further experiment deals with T2, LRRK2 kinase (Homo sapiens, UniProt Q5S007).
T2 construct: purchased Thermo Fisher
Briefly: Biochemical assay for LRRK2 (coupled pyruvate kinase/lactate dehydrogenase assay). Particulars: 26.4 nM LRRK2 (residues 970-2528), 0.1 mM peptide substrate, 1 mM ATP. The procedure: Example 182. Biochemical Assay for LRRK2 (SEQ. ID NO. 4)
Activity of LRRK2 kinase was determined spectroscopically using a coupled pyruvate kinase/lactate dehydrogenase assay that continuously monitors the ATP hydrolysis-dependent oxidation of NADH (e.g., Schindler et al. Science (2000) 289: 1938-1942). Assays were conducted in 384-well plates (100 uL final volume) using 26.4 nM LRRK2 (Thermo Fisher), 0.1 mM peptide substrate (RLGRDKYKTLRQIRQ (SEQ ID NO: 6)), 1.5 units pyruvate kinase, 2.1 units lactate dehydrogenase, 1 mM phosphoenol pyruvate, 0.28 mM NADH and 1 mM ATP in assay buffer (100 mM Tris, pH 7.5, 15 mM MgCl2, 0.5 mM DTT, 0.004% (w/v) BSA, and 0.004% Triton X-100). Inhibition of LRRK2 was measured by adding serial diluted test compound (final assay concentration of 1% DMSO). A decrease in absorption at 340 nm was monitored continuously for 6 hours at 30° C. on a multi-mode microplate reader (BioTek). The reaction rate was calculated using the 2-3 h time frame. The reaction rate at each concentration of compound was converted to percent inhibition using controls (i.e. reaction with no test compound and reaction with a known inhibitor) and IC50 values were calculated using software routines in Prism (GraphPad software).

27 compounds from patent publication US11518758B2, “Heteroarylaminopyrimidine amide autophagy inhibitors and methods of use thereof” (Deciphera Pharmaceuticals, LLC, priority 2019, dated 2022) can be followed below.

T2 sequence (Q5S007 with tags, fused parts or gaps): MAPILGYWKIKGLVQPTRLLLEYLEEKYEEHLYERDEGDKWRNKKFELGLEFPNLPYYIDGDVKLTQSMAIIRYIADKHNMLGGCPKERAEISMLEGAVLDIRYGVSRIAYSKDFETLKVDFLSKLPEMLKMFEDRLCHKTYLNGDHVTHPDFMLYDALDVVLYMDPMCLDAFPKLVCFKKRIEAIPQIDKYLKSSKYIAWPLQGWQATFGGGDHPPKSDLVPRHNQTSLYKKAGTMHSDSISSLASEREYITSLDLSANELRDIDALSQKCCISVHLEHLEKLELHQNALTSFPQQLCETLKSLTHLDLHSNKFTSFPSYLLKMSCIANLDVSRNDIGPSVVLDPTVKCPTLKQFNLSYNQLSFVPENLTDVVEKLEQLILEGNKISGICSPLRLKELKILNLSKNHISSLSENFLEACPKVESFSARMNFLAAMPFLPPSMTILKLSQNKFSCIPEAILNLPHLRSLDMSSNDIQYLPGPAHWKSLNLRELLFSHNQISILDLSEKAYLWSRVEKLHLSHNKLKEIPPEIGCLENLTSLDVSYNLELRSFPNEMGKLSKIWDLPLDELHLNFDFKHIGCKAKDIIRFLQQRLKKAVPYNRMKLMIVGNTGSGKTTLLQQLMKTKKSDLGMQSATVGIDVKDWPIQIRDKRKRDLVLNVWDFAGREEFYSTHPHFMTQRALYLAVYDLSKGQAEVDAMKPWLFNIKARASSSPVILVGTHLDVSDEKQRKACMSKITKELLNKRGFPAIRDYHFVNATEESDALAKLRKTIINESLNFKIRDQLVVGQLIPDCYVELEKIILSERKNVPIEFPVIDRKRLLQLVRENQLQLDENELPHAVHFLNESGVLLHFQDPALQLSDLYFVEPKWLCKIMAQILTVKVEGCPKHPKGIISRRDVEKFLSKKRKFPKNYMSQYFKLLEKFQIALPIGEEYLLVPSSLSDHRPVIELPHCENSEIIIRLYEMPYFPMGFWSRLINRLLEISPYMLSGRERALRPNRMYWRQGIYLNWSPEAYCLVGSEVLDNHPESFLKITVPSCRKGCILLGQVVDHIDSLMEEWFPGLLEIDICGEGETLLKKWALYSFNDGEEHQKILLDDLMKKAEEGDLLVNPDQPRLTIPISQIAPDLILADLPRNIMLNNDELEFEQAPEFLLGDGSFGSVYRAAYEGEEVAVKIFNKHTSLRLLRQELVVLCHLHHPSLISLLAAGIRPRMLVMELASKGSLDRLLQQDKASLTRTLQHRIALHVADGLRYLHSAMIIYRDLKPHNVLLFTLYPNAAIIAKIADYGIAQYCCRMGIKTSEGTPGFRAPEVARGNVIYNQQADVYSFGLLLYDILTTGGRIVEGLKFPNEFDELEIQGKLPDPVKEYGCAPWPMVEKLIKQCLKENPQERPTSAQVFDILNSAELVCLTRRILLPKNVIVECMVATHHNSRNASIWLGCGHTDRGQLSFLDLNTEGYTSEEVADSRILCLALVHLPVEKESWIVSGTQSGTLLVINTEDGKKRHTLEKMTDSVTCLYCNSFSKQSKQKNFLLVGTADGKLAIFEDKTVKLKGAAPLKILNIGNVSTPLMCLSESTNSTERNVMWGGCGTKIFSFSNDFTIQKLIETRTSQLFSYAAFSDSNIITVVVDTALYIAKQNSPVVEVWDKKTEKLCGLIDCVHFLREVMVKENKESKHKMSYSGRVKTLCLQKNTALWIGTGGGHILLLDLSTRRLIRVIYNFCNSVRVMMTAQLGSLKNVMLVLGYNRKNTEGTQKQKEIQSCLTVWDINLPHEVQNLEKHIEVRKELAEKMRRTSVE

By IC50 is commonly meant the midpoint of a concentration-inhibition curve. For `Cc1nn(C2CCN(C)CC2)cc1Nc1ncc(C2CC2)c(NCCCN2CCOCCC2=O)n1` [Example 141], the IC50 against ULK1 kinase was 100 to 500 nM; at LRRK2 kinase, more than 600 nM.
In the case of `CCc1nn(C2CCN(C)CC2)cc1Nc1ncc(C(F)(F)F)c(NCCCN2CCOCCC2=O)n1` [Example 136], at ULK1 kinase, the IC50 is 1 to 25 nM.
Regarding `CCN1CCC(n2cc(Nc3ncc(C4CC4)c(NCCCN4CCOCCC4=O)n3)c(C)n2)CC1` [Example 142], the IC50 against ULK1 kinase was more than 500 nM.
Consider `Cc1nn([C@@H]2CCN(C)C2)cc1Nc1ncc(Cl)c(NCCCN2CCCOCC2=O)n1` [Example 113], for which the IC50 is 100 to 500 nM on ULK1 kinase and 100 to 300 nM at LRRK2 kinase.
`Cc1nn(C(C)(C)C#N)cc1Nc1ncc(C(F)(F)F)c(NCCCN2CCCOCC2=O)n1` [Example 172, 2-methyl-2-(3-methyl-4-((4-((3-(3-oxo-1,4-oxazepan-4-yl)propyl)amino)-5-(trifluoromethyl)pyrimidin-2-yl)amino)-1H-pyrazol-1-yl)propanenitrile]: the IC50 against ULK1 kinase lay within 100 to 500 nM; on LRRK2 kinase, 1 to 100 nM.
Taken in the same sequence, the figures for `Cc1nn(CCN(C)C)cc1Nc1ncc(C2CC2)c(NCCCN2CCOCCC2=O)n1` [Example 140] were more than 500 nM and more than 600 nM.
Taken in the same sequence, the figures for `Cc1nn(CCCN2CCOCC2)cc1Nc1ncc(C2CC2)c(NCCCN2CCCOCC2=O)n1` [Example 115] were more than 500 nM and more than 600 nM.
`Cc1nn(CCN(C)C)cc1Nc1ncc(Br)c(NCCCN2CCOCCC2=O)n1` [Example 144] had a half-inhibitory concentration (IC50) at ULK1 kinase of 100 to 500 nM.
Regarding `CCc1nn(C2CCN(C(C)C)CC2)cc1Nc1ncc(Cl)c(NCCCN2CCCOC2=O)n1` [Example 73], the IC50 against ULK1 kinase was 100 to 500 nM; against LRRK2 kinase, 300 to 600 nM.
In turn, `Cc1nn(CCCN2CCOCC2)cc1Nc1ncc(Br)c(NCCCN2CCCOCC2=O)n1` [Example 121] registered an IC50 at ULK1 kinase of 100 to 500 nM.
`Cc1nn(C2CCN(C(C)C)CC2)cc1Nc1ncc(C2CC2)c(NCCCN2CCCOCC2=O)n1` [Example 114]: the IC50 against ULK1 kinase is more than 500 nM; on LRRK2 kinase, more than 600 nM.
For `Cc1nn(CCCN2CCOCC2)cc1Nc1ncc(C2CC2)c(NCCCN2CCOCCC2=O)n1` [Example 139], in that order: more than 500 nM and more than 600 nM.
Taken in the same sequence, the figures for `CCc1nn(C2CCN(C(C)C)CC2)cc1Nc1ncc(C2CC2)c(NCCCN2CCOCC2=O)n1` [Example 76] were more than 500 nM and more than 600 nM.
For `Cc1nn(CCN(C)C)cc1Nc1ncc(Cl)c(NCCCN2CCCOCC2=O)n1` [Example 123], in that order: more than 500 nM and more than 600 nM.
Consider `Cc1nn(C(C)(C)C(N)=O)cc1Nc1ncc(C(F)(F)F)c(NCCCN2CCCCC2=O)n1` [Example 67], for which the IC50 on ULK1 kinase was more than 500 nM; against LRRK2 kinase, 1 to 100 nM.
In the case of `Cc1nn(CCCN2CCOCC2)cc1Nc1ncc(Cl)c(NCCCN2CCCOCC2=O)n1` [Example 120], the IC50 on ULK1 kinase was more than 500 nM.
For the compound `Cc1nn(C(C)(C)C(N)=O)cc1Nc1ncc(C(F)(F)F)c(NCCCN2CCOCCC2=O)n1` [Example 145], the IC50 against ULK1 kinase is 100 to 500 nM; against LRRK2 kinase, 1 to 100 nM.
Take `Cc1nn(CCN(C)C)cc1Nc1ncc(C(F)(F)F)c(NCCCN2CCCOCC2=O)n1` [Example 117]: at ULK1 kinase, the IC50 lay within 25 to 100 nM.
In the case of `Cc1nn(CCN(C)C)cc1Nc1ncc(C2CC2)c(NCCCN2CCCOCC2=O)n1` [Example 116], the values for the 50% inhibitory concentration (IC50) against ULK1 kinase and against LRRK2 kinase were more than 500 nM and more than 600 nM, respectively.
In the case of `Cc1nn(C2CCN(C(C)C)CC2)cc1Nc1ncc(Cl)c(NCCCN2CCOCCC2=O)n1` [Example 143], the half-inhibitory concentration (IC50) at ULK1 kinase fell in the range of 100 to 500 nM.
On to `CCN(CC)CCn1cc(Nc2ncc(C(F)(F)F)c(NCCCN3CCOCCC3=O)n2)c(C)n1` [Example 146], for which, on ULK1 kinase, the IC50 is 100 to 500 nM.
In the case of `Cc1nn(CCN(C)C)cc1Nc1ncc(Br)c(NCCCN2CCCOCC2=O)n1` [Example 122], the IC50 on ULK1 kinase lay in the range of 100 to 500 nM; against LRRK2 kinase, 100 to 300 nM.
Compound `Cc1nn(CCN(C)C)cc1Nc1ncc(C(F)(F)F)c(NCCCN2CCOCCC2=O)n1` [Example 137] registered an IC50 at ULK1 kinase of 100 to 500 nM.
On to `Cc1nn(C(C)(C)C(N)=O)cc1Nc1ncc(C(F)(F)F)c(NCCCN2CCCOCC2=O)n1` [Example 125, 2-methyl-2-(3-methyl-4-((4-((3-(3-oxo-1,4-oxazepan-4-yl)propyl)amino)-5-(trifluoromethyl)pyrimidin-2-yl)amino)-1H-pyrazol-1-yl)propanamide], for which the IC50 against ULK1 kinase was more than 500 nM; against LRRK2 kinase, 1 to 100 nM.
For the compound `Cc1cn(C2CCN(C)CC2)nc1Nc1ncc(C(F)(F)F)c(NCCCN2CCCOC2=O)n1` [Example 126], the IC50 at ULK1 kinase was more than 500 nM; against LRRK2 kinase, more than 600 nM.
With `Cc1nn(C2CCN(C(C)C)CC2)cc1Nc1ncc(C2CC2)c(NCCCN2CCOCC2=O)n1` [Example 75], the IC50 at ULK1 kinase was more than 500 nM.
As to `CCc1nn(C2CCN(C)CC2)cc1Nc1ncc(C2CC2)c(NCCCN2CCCOCC2=O)n1` [Example 119], on ULK1 kinase, the IC50 is more than 500 nM.
